Positions count from the first letter of the chain named. Activity calls are given as the source filed them. The calls are words filed in the database; no cut-off is given here. Numbered stars: 1 amine (or outer) side, 2 acyl side, 3 side chain; on linkers, the order of the positions; unused ones are H or OH. Bridge positions count the residues as written; N and C are the ends. Square brackets hold non-standard residues; d marks the D form. Peptide text beside a SMILES is read from it. I, II: the chains in the order shown. * marks the point of attachment. Sebacoyl = O=C(CCCCCCCCC(=O)[*:2])[*:1]; C14 diacid = O=C(O)CCCCCCCCCCCCC(=O)*; C12 diacid = O=C(O)CCCCCCCCCCC(=O)*; Adipoyl = O=C(CCCCC(=O)[*:2])[*:1]; Octanoyl = CCCCCCCC(=O)*; Mpa = O=C(O)CCS
Legend:
[1] = molecular target: T1, Oxytocin receptor (Homo sapiens) (UniProt P30559); experiment: (§1) Agonist activity at human oxytocin receptor expressed in HEK293 cells coexpressing Rluc8-tagged Galphaq, N-terminal GFP-tagged Ggamma2 and Gbeta1 protein incubated for 2 mins in presence of TMH5-TAT peptide by Gq protein activation based BRET assay; assay type: cell-based; design: unit not given here
T1 sequence (whole entry): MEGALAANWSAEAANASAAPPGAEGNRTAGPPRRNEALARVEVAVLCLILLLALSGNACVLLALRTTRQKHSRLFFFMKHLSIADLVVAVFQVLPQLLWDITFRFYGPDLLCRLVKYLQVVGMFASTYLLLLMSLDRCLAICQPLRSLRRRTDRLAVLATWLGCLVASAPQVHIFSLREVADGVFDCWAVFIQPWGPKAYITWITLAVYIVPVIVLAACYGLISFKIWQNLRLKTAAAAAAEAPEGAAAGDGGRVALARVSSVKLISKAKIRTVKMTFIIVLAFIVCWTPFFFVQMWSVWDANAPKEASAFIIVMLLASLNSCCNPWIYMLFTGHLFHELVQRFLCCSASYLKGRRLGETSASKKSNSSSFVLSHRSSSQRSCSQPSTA

Oxytocin receptor [2] = molecular target: T2, Oxytocin receptor (Homo sapiens, UniProt P30559); experiment: Agonist activity at human oxytocin receptor low affinity site expressed in HEK293 cells coexpressing Rluc8-tagged Galphaq, N-terminal GFP-tagged Ggamma2 and Gbeta1 protein incubated for 2 mins by Gq protein activation based BRET assay; assay type: cell-based
T2 sequence (P30559 whole entry): T1 sequence (whole entry)

[3] = tested on: T3, Oxytocin receptor (Homo sapiens), P30559 [V43A,C47A]; experiment: (§2) Agonist activity at human oxytocin receptor V43A/C47A double mutant expressed in HEK293 cells coexpressing Rluc8-tagged Galphaq, N-terminal GFP-tagged Ggamma2 and Gbeta1 protein incubated for 2 mins by Gq protein activation based BRET assay; assay type: cell-based; design: unit not given here
T3 sequence (whole entry): T1 sequence (whole entry) with V43A, C47A

Oxytocin receptor [4] = molecular target: T4, Oxytocin receptor (Homo sapiens, UniProt P30559, C47A/V43A); experiment: as §2; assay type: cell-based
[5] = molecular target: T1, Oxytocin receptor (Homo sapiens); experiment: (§3) Agonist activity at human oxytocin receptor expressed in HEK293 cells coexpressing Rluc8-tagged Galphaq, N-terminal GFP-tagged Ggamma2 and Gbeta1 protein incubated for 2 mins by Gq protein activation based BRET assay; assay type: cell-based; design: unit not given here
Oxytocin receptor [6] = molecular target: T2, Oxytocin receptor; experiment: (§4) Agonist activity at human oxytocin receptor expressed in HEK293 cells coexpressing Rluc8-tagged Galphaq, N-terminal GFP-tagged Ggamma2 and Gbeta1 protein incubated for 2 mins in presence of TMH1-TAT peptide by Gq protein activation based BRET assay; assay type: cell-based
[7] = molecular target: T1, Oxytocin receptor (Homo sapiens); experiment: as §4; assay type: cell-based; design: unit not given here
Oxytocin receptor [8] = molecular target: T2, Oxytocin receptor; experiment: Agonist activity at human oxytocin receptor low affinity site expressed in HEK293 cells coexpressing Rluc8-tagged Galphaq, N-terminal GFP-tagged Ggamma2 and Gbeta1 protein incubated for 2 mins in presence of TMH5-TAT peptide by Gq protein activation based BRET assay; assay type: cell-based
Oxytocin receptor [9] = molecular target: T2, Oxytocin receptor; experiment: Agonist activity at human oxytocin receptor high affinity site expressed in HEK293 cells coexpressing Rluc8-tagged Galphaq, N-terminal GFP-tagged Ggamma2 and Gbeta1 protein incubated for 2 mins by Gq protein activation based BRET assay; assay type: cell-based
Oxytocin receptor [10] = molecular target: T2, Oxytocin receptor; experiment: Agonist activity at human oxytocin receptor high affinity site expressed in HEK293 cells coexpressing Rluc8-tagged Galphaq, N-terminal GFP-tagged Ggamma2 and Gbeta1 protein incubated for 2 mins in presence of TMH5-TAT peptide by Gq protein activation based BRET assay; assay type: cell-based
Oxytocin receptor [11] = molecular target: T5, Oxytocin receptor (Homo sapiens, UniProt P30559, C47A); experiment: (§5) Agonist activity at human oxytocin receptor C47A mutant expressed in HEK293 cells coexpressing Rluc8-tagged Galphaq, N-terminal GFP-tagged Ggamma2 and Gbeta1 protein incubated for 2 mins by Gq protein activation based BRET assay; assay type: cell-based
[12] = tested on: T6, Oxytocin receptor (Homo sapiens), P30559 [C47A]; experiment: as §5; assay type: cell-based; design: unit not given here
T6 sequence (whole entry): T1 sequence (whole entry) with C47A

Mus musculus = experiment: Effect on social behavior in OXTR+/- DBA/2J mouse assessed as increase in time spent exploring stranger mouse over time spent exploring empty cage at 0.5 ng/mouse, icv administered as single dose measured for 10 mins by three chamber method; assay type: functional, organism-based
Oxytocin receptor [13] = molecular target: T5, Oxytocin receptor; experiment: Agonist activity at human oxytocin receptor C47A mutant low affinity site expressed in HEK293 cells coexpressing Rluc8-tagged Galphaq, N-terminal GFP-tagged Ggamma2 and Gbeta1 protein incubated for 2 mins by Gq protein activation based BRET assay; assay type: cell-based
Oxytocin receptor [14] = molecular target: T2, Oxytocin receptor; experiment: as §1; assay type: cell-based
Oxytocin receptor [15] = molecular target: T2, Oxytocin receptor; experiment: as §3; assay type: cell-based
Oxytocin receptor [16] = molecular target: T5, Oxytocin receptor; experiment: Agonist activity at human oxytocin receptor C47A mutant high affinity site expressed in HEK293 cells coexpressing Rluc8-tagged Galphaq, N-terminal GFP-tagged Ggamma2 and Gbeta1 protein incubated for 2 mins by Gq protein activation based BRET assay; assay type: cell-based
Oxytocin receptor [17] = molecular target: T4, Oxytocin receptor; experiment: Agonist activity at human oxytocin receptor V43A/C47A double mutant high affinity site expressed in HEK293 cells coexpressing Rluc8-tagged Galphaq, N-terminal GFP-tagged Ggamma2 and Gbeta1 protein incubated for 2 mins by Gq protein activation based BRET assay; assay type: cell-based
Oxytocin receptor [18] = molecular target: T4, Oxytocin receptor; experiment: Agonist activity at human oxytocin receptor V43A/C47A double mutant low affinity site expressed in HEK293 cells coexpressing Rluc8-tagged Galphaq, N-terminal GFP-tagged Ggamma2 and Gbeta1 protein incubated for 2 mins by Gq protein activation based BRET assay; assay type: cell-based
Danio rerio = experiment: Effect on social behavior in zebra fish assessed as increase in time spent swimming parallel to nacre mutant fish over time spent shoaling close to wild type fish at 0.75 ng/kg, im; assay type: functional, organism-based
[19] = molecular target: T1, Oxytocin receptor (Homo sapiens); experiment: Ratio of EC50 for human oxytocin receptor high affinity site expressed in HEK293 cells coexpressing Rluc8-tagged Galphaq, N-terminal GFP-tagged Ggamma2 and Gbeta1 protein to Ki for human oxytocin receptor high affinity site expressed in COS7 cell membrane; assay type: cell-based
[20] = molecular target: T1, Oxytocin receptor (Homo sapiens); experiment: Ratio of EC50 for human oxytocin receptor low affinity site expressed in HEK293 cells coexpressing Rluc8-tagged Galphaq, N-terminal GFP-tagged Ggamma2 and Gbeta1 protein to Ki for human oxytocin receptor low affinity site expressed in COS7 cell membrane; assay type: cell-based
[21] = molecular target: T1, Oxytocin receptor (Homo sapiens); experiment: Displacement of [125I]-OVTA from human oxytocin receptor expressed in COS7 cell membrane; assay type: cell membranes

T4 sequence (P30559 whole entry V43A/C47A): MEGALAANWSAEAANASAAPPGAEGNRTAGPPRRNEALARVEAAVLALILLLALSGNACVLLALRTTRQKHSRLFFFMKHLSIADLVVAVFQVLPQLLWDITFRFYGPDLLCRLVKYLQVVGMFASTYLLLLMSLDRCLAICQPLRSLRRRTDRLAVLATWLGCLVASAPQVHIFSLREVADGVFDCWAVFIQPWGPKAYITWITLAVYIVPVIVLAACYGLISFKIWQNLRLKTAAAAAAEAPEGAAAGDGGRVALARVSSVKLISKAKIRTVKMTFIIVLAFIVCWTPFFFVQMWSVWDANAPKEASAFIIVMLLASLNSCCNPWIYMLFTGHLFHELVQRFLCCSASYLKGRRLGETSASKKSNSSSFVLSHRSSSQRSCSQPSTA
T5 sequence (P30559 whole entry C47A): as the sequence (P30559 whole entry V43A/C47A) above, with A43V counted along it

SMILES	Emax [1]	Emax [3]	EC50 (Oxytocin receptor [4]) [nM]	Emax [5]	EC50 (Oxytocin receptor [6]) [nM]	Emax [7]	EC50 (Oxytocin receptor [11]) [nM]	Emax [12]	EC50 (Oxytocin receptor [14]) [nM]	EC50 (Oxytocin receptor [15]) [nM]	other results
CC[C@H](C)[C@@H]1NC(=O)[C@H](Cc2ccc(O)cc2)NC(=O)CCSSC[C@@H](C(=O)N2CCC[C@H]2C(=O)N[C@@H](CCCCNC(=O)CCCCCCCCC(=O)NCCCC[C@H](NC(=O)[C@@H]2CCCN2C(=O)[C@@H]2CSSCCC(=O)N[C@@H](Cc3ccc(O)cc3)C(=O)N[C@@H]([C@@H](C)CC)C(=O)N[C@@H](CCC(N)=O)C(=O)N[C@@H](CC(N)=O)C(=O)N2)C(=O)NCC(N)=O)C(=O)NCC(N)=O)NC(=O)[C@H](CC(N)=O)NC(=O)[C@H](CCC(N)=O)NC1=O (I: [Mpa]YIQNCPKG-NH2 / II: [Mpa]YIQNCPKG-NH2; disulfide I:1-I:6, II:1-II:6; linker I:8-II:8 via Sebacoyl)	-0.17	-0.14	40.5	-0.1	17.3	-0.15	21.7	-0.14			EC50 (Oxytocin receptor [2]): 13 nM; EC50 (Oxytocin receptor [8]): 11 nM; EC50 (Oxytocin receptor [9]): 0.0028 nM; EC50 (Oxytocin receptor [10]): 0.00257 nM
CC[C@H](C)[C@@H]1NC(=O)[C@H](Cc2ccc(O)cc2)NC(=O)[C@@H](N)CSSC[C@@H](C(=O)N2CCC[C@H]2C(=O)N[C@@H](CC(C)C)C(=O)NCC(N)=O)NC(=O)[C@H](CC(N)=O)NC(=O)[C@H](CCC(N)=O)NC1=O											Activity (Mus musculus): Active
CC[C@H](C)[C@@H]1NC(=O)[C@H](Cc2ccc(O)cc2)NC(=O)CCSSC[C@@H](C(=O)N2CCC[C@H]2C(=O)N[C@@H](CCCCNC(=O)CCCCCCCCCCCCC(=O)NCCCC[C@H](NC(=O)[C@@H]2CCCN2C(=O)[C@@H]2CSSCCC(=O)N[C@@H](Cc3ccc(O)cc3)C(=O)N[C@@H]([C@@H](C)CC)C(=O)N[C@@H](CCC(N)=O)C(=O)N[C@@H](CC(N)=O)C(=O)N2)C(=O)NCC(N)=O)C(=O)NCC(N)=O)NC(=O)[C@H](CC(N)=O)NC(=O)[C@H](CCC(N)=O)NC1=O (I: [Mpa]YIQNCPKG-NH2 / II: [Mpa]YIQNCPKG-NH2; disulfide I:1-I:6, II:1-II:6; linker I:8-II:8 via C14 diacid)	-0.145	-0.11		-0.1	15.4	-0.144		-0.11	59	29.4	EC50 (Oxytocin receptor [13]): 301 nM; EC50 (Oxytocin receptor [16]): 0.0014 nM; EC50 (Oxytocin receptor [17]): 0.011 nM; EC50 (Oxytocin receptor [18]): 867 nM
CC[C@H](C)[C@@H]1NC(=O)[C@H](Cc2ccc(O)cc2)NC(=O)CCSSC[C@@H](C(=O)N2CCC[C@H]2C(=O)N[C@@H](CCCCNC(=O)CCCCCCCCCCC(=O)NCCCC[C@H](NC(=O)[C@@H]2CCCN2C(=O)[C@@H]2CSSCCC(=O)N[C@@H](Cc3ccc(O)cc3)C(=O)N[C@@H]([C@@H](C)CC)C(=O)N[C@@H](CCC(N)=O)C(=O)N[C@@H](CC(N)=O)C(=O)N2)C(=O)NCC(N)=O)C(=O)NCC(N)=O)NC(=O)[C@H](CC(N)=O)NC(=O)[C@H](CCC(N)=O)NC1=O (I: [Mpa]YIQNCPKG-NH2 / II: [Mpa]YIQNCPKG-NH2; disulfide I:1-I:6, II:1-II:6; linker I:8-II:8 via C12 diacid)	-0.15	-0.08	182	-0.11	37.9	-0.16		-0.13	14	20.1	EC50 (Oxytocin receptor [13]): 135 nM; EC50 (Oxytocin receptor [16]): 0.0012 nM
CC[C@H](C)[C@@H]1NC(=O)[C@H](Cc2ccc(O)cc2)NC(=O)CCSSC[C@@H](C(=O)N2CCC[C@H]2C(=O)N[C@@H](CCCCNC(=O)CCCCC(=O)NCCCC[C@H](NC(=O)[C@@H]2CCCN2C(=O)[C@@H]2CSSCCC(=O)N[C@@H](Cc3ccc(O)cc3)C(=O)N[C@@H]([C@@H](C)CC)C(=O)N[C@@H](CCC(N)=O)C(=O)N[C@@H](CC(N)=O)C(=O)N2)C(=O)NCC(N)=O)C(=O)NCC(N)=O)NC(=O)[C@H](CC(N)=O)NC(=O)[C@H](CCC(N)=O)NC1=O (I: [Mpa]YIQNCPKG-NH2 / II: [Mpa]YIQNCPKG-NH2; disulfide I:1-I:6, II:1-II:6; linker I:8-II:8 via Adipoyl)		-0.14	25.6	-0.13			21.9	-0.13		11.8	
CC[C@H](C)[C@@H]1NC(=O)[C@H](Cc2ccc(O)cc2)NC(=O)[C@@H](N)CSSC[C@@H](C(=O)N2CCC[C@H]2C(=O)N[C@H](C(=O)NCC(N)=O)[C@@H](C)CC)NC(=O)[C@H](CC(N)=O)NC(=O)[C@H](CO)NC1=O (H-CYISNCPIG-NH2; disulfide 1-6)											Activity (Danio rerio): Active
CC[C@H](C)[C@@H]1NC(=O)[C@H](Cc2ccc(O)cc2)NC(=O)CCSSC[C@@H](C(=O)N2CCC[C@H]2C(=O)N[C@@H](CCCCN)C(=O)NCC(N)=O)NC(=O)[C@H](CC(N)=O)NC(=O)[C@H](CCC(N)=O)NC1=O ([Mpa]YIQNCPKG-NH2; disulfide 1-6)	-0.14	-0.08	33.4	-0.11 to -0.1	0.92	-0.15	2.8	-0.15	0.75	4	Ratio [19]: 10; EC50 (Oxytocin receptor [2]): 74.8 nM; Ratio [20]: 10; KiH [21]: 21 pM; KiL [21]: 3.35 nM; EC50 (Oxytocin receptor [9]): 0.265 nM
CCCCCCCC(=O)NCCCC[C@H](NC(=O)[C@@H]1CCCN1C(=O)[C@@H]1CSSCCC(=O)N[C@@H](Cc2ccc(O)cc2)C(=O)N[C@@H]([C@@H](C)CC)C(=O)N[C@@H](CCC(N)=O)C(=O)N[C@@H](CC(N)=O)C(=O)N1)C(=O)NCC(N)=O ([Mpa]YIQNCPK(Octanoyl)G-NH2; disulfide 1-6)				-0.11						4.1	

Source: ChEMBL document CHEMBL4477229, “Design and Characterization of Superpotent Bivalent Ligands Targeting Oxytocin Receptor Dimers via a Channel-Like Structure” (J Med Chem, 2016)
